“And” between values parts separate entries of the source, which are not always exact repeats. Equal values may be shown once. Read-outs that look alike come from different tables or passages of the source.
Molecular target: T1, Recombinant human Src enzyme (Homo sapiens, UniProt P12931)
T1 construct: purchased PanVera P3044
Test: Src Kinase Assay (LANCE FRET)
Format: biochemical
Settings: multiple entries = tested multiple times
Experimental: Recombinant human Src enzyme was obtained from PanVera (P3044). […] Homogeneous fluorescence resonance energy transfer kinase assays were performed using the europium/APC detection format (LANCE, Perkin Elmer). Src enzyme (10 ng) was mixed with biotinylated peptide (final concentration 2 μM), 50 mM Hepes (pH 7.5), 10 mM MgCl2, 20 ug/ml BSA, 0.001% Brij-35 (Sigma), 100 μM ATP, 1% DMSO. The kinase reaction was incubated for 70 min at 37° C. The reaction was stopped with EDTA at a final concentration of 30 mM EDTA/25 mM Hepes (pH 7.5)/10 μg/ml BSA. The mixture was combined with Eu-labeled anti-phosphotyrosine antibody PT66 (Perkin Elmer, AD0068) and Streptavidin Surelight-APC (Perkin Elmer, CR130-100) in 50 mM Hepes (pH 7.5)/20 μg/ml BSA, and incubated for 30 min according to manufacturer's specifications. […] Multiple entries for a given compound indicate that it was tested multiple times.

[1] = 100 μM ATP, read-out: Src enzyme IC50

T1 sequence (P12931 whole entry): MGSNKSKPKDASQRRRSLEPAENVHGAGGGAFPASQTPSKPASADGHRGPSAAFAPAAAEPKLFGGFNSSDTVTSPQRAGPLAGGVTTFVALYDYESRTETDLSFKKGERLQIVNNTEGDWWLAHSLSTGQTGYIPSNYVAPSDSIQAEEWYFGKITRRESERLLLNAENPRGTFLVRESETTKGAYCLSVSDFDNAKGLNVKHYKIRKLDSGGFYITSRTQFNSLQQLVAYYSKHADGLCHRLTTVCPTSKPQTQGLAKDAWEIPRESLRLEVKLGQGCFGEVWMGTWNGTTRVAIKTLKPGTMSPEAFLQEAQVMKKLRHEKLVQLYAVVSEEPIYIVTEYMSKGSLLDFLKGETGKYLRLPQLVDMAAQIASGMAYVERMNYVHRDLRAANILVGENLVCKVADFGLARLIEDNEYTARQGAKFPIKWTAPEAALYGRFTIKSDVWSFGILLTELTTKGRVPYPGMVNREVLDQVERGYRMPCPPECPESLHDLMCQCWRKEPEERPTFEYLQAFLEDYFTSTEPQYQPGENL

In the case of `COc1cc(Nc2c(C#N)cnc3cc(-c4coc(CN5CCCC5)c4)c(OC)cc23)c(Cl)cc1Cl` [Example 6, 4-[(2,4-dichloro-5-methoxyphenyl)amino]-6-methoxy-7-[5-(pyrrolidin-1-ylmethyl)-3-furyl]quinoline-3-carbonitrile], the IC50 [1] is reported as 0.8 nM and 0.9 nM.
In the case of `COc1cc(Nc2c(C#N)cnc3cc(-c4coc(CN5CCCCC5)c4)c(OC)cc23)c(Cl)cc1Cl` [Example 7, 4-[(2,4-dichloro-5-methoxyphenyl)amino]-6-methoxy-7-[5-(piperidin-1-ylmethyl)-3-furyl]quinoline-3-carbonitrile], the IC50 (Src enzyme IC50, 100 μM ATP) is reported as 0.7 nM.
In the case of `CCN(CC)Cc1cc(-c2cc3ncc(C#N)c(Nc4cc(OC)c(Cl)cc4Cl)c3cc2OC)co1` [Example 8, 4-[(2,4-dichloro-5-methoxyphenyl)amino]-7-{5-[(diethylamino)methyl]-3-furyl}-6-methoxyquinoline-3-carbonitrile], the IC50 [1] is reported as 0.9 nM and 0.8 nM.
With `CCN1CCN(Cc2cc(-c3cc4ncc(C#N)c(Nc5cc(OC)c(Cl)cc5Cl)c4cc3OC)co2)CC1` [Example 9, 4-[(2,4-dichloro-5-methoxyphenyl)amino]-7-{5-[(4-ethylpiperazin-1-yl)methyl]-3-furyl}-6-methoxyquinoline-3-carbonitrile] the IC50 [1] was 0.6 nM and 0.7 nM.
Work on `COc1cc(Nc2c(C#N)cnc3cc(-c4coc(CN5CCN(C6CCN(C)CC6)CC5)c4)c(OC)cc23)c(Cl)cc1Cl` [Example 10, 4-[(2,4-dichloro-5-methoxyphenyl)amino]-6-methoxy-7-(5-{[4-(1-methylpiperidin-4-yl)piperazin-1-yl]methyl}-3-furyl)quinoline-3-carbonitrile] yielded an IC50 [1] of 0.5 nM.
`COc1cc(Nc2c(C#N)cnc3cc(-c4coc(CN5CCC(N6CCCC6)CC5)c4)c(OC)cc23)c(Cl)cc1Cl` [Example 11, 4-[(2,4-dichloro-5-methoxyphenyl)amino]-6-methoxy-7-{5-[(4-pyrrolidin-1-ylpiperidin-1-yl)methyl]-3-furyl}quinoline-3-carbonitrile] was tested, and the IC50 [1] was 1.1 nM and 1 nM.
In the case of `CCCCN1CCN(Cc2cc(-c3cc4ncc(C#N)c(Nc5cc(OC)c(Cl)cc5Cl)c4cc3OC)co2)CC1` [Example 12, 7-{5-[(4-butylpiperazin-1-yl)methyl]-3-furyl}-4-[(2,4-dichloro-5-methoxyphenyl)amino]-6-methoxyquinoline-3-carbonitrile], the IC50 [1] is reported as 2.5 nM and 2.1 nM.
`COc1cc(Nc2c(C#N)cnc3cc(-c4coc(CN5CCN(CCN6CCOCC6)CC5)c4)c(OC)cc23)c(Cl)cc1Cl` [Example 13, 4-[(2,4-dichloro-5-methoxyphenyl)amino]-6-methoxy-7-(5-{[4-(2-morpholin-4-ylethyl)piperazin-1-yl]methyl}-3-furyl)quinoline-3-carbonitrile] was tested, and the IC50 [1] was 1 nM.
In the case of `COc1cc(Nc2c(C#N)cnc3cc(-c4coc(CN5CCN(Cc6ccccc6)CC5)c4)c(OC)cc23)c(Cl)cc1Cl` [Example 14, 7-{5-[(4-benzylpiperazin-1-yl)methyl]-3-furyl}-4-[(2,4-dichloro-5-methoxyphenyl)amino]-6-methoxyquinoline-3-carbonitrile], the IC50 [1] is reported as 33.7 nM and 56.2 nM.
In the case of `COc1cc(Nc2c(C#N)cnc3cc(-c4coc(CN5CCN(CCc6ccccc6)CC5)c4)c(OC)cc23)c(Cl)cc1Cl` [Example 15, 4-[(2,4-dichloro-5-methoxyphenyl)amino]-6-methoxy-7-(5-{[4-(2-phenylethyl)piperazin-1-yl]methyl}-3-furyl)quinoline-3-carbonitrile], the IC50 [1] is reported as 18.3 nM and 13.3 nM.
For `CCCN(CCC)Cc1cc(-c2cc3ncc(C#N)c(Nc4cc(OC)c(Cl)cc4Cl)c3cc2OC)co1` [Example 16, 4-[(2,4-dichloro-5-methoxyphenyl)amino]-7-{5-[(dipropylamino)methyl]-3-furyl]-6-methoxyquinoline-3-carbonitrile], the IC50 [1] was 10.2 nM and 6.5 nM.
For `COc1cc(Nc2c(C#N)cnc3cc(-c4coc(CN5CCS(=O)(=O)CC5)c4)c(OC)cc23)c(Cl)cc1Cl` [Example 17, 4-[(2,4-dichloro-5-methoxyphenyl)amino]-7-{5-[(1,1-dioxidothiomorpholin-4-yl)methyl]-3-furyl}-6-methoxyquinoline-3-carbonitrile], the IC50 [1] was 2.4 nM and 2.1 nM.
`COc1cc(Nc2c(C#N)cnc3cc(-c4coc(CN5CC[S+]([O-])CC5)c4)c(OC)cc23)c(Cl)cc1Cl` [Example 18, 4-[(2,4-dichloro-5-methoxyphenyl)amino]-6-methoxy-7-{5-[(1-oxidothiomorpholin-4-yl)methyl]-3-furyl}quinoline-3-carbonitrile] was tested, and the IC50 [1] was 1.5 nM and 2.4 nM.
`COc1cc(Nc2c(C#N)cnc3cc(-c4coc(CN5CCN(C6CCCCC6)CC5)c4)c(OC)cc23)c(Cl)cc1Cl` [Example 19, 7-{5-[(4-cyclohexylpiperazin-1-yl)methyl]-3-furyl}-4-[(2,4-dichloro-5-methoxyphenyl)amino]-6-methoxyquinoline-3-carbonitrile] was tested, and the IC50 [1] was 3.6 nM and 2.8 nM.
With `COc1ccc(N2CCN(Cc3cc(-c4cc5ncc(C#N)c(Nc6cc(OC)c(Cl)cc6Cl)c5cc4OC)co3)CC2)cc1` [Example 20, 4-[(2,4-dichloro-5-methoxyphenyl)amino]-6-methoxy-7-(5-{[4-(4-methoxyphenyl)piperazin-1-yl]methyl}-3-furyl)quinoline-3-carbonitrile] the IC50 [1] was 10 nM and 11.7 nM.
For `COc1cc(Nc2c(C#N)cnc3cc(-c4coc(CN5CCN(c6ccncc6)CC5)c4)c(OC)cc23)c(Cl)cc1Cl` [Example 21, 4-[(2,4-dichloro-5-methoxyphenyl)amino]-6-methoxy-7-[5-[(4-pyridin-4-ylpiperazin-1-yl)methyl]-3-furyl}quinoline-3-carbonitrile], the IC50 [1] was 2.2 nM and 1.9 nM.
For `COc1cc(Nc2c(C#N)cnc3cc(-c4coc(CN5CCN(c6ccc(C)cc6)CC5)c4)c(OC)cc23)c(Cl)cc1Cl` [Example 22, 4-[(2,4-dichloro-5-methoxyphenyl)amino]-6-methoxy-7-(5-{[4-(4-methylphenyl)piperazin-1-yl]methyl}-3-furyl)quinoline-3-carbonitrile], the IC50 [1] was 12.8 nM and 14.3 nM.
`COc1cc(Nc2c(C#N)cnc3cc(-c4coc(CN5CCN(c6ccc(Cl)cc6)CC5)c4)c(OC)cc23)c(Cl)cc1Cl` [Example 23, 7-(5-{[4-(4-chlorophenyl)piperazin-1-yl]methyl}-3-furyl)-4-[(2,4-dichloro-5-methoxyphenyl)amino]-6-methoxyquinoline-3-carbonitrile] was tested, and the IC50 [1] was 18.9 nM and 17 nM.
For `COc1cc(Nc2c(C#N)cnc3cc(-c4coc(CN5CCN(c6ccc(O)cc6)CC5)c4)c(OC)cc23)c(Cl)cc1Cl` [Example 24, 4-[(2,4-dichloro-5-methoxyphenyl)amino]-7-(5-{[4-(4-hydroxyphenyl)piperazin-1-yl]methyl}-3-furyl)-6-methoxyquinoline-3-carbonitrile], the IC50 [1] was 6 nM and 5.6 nM.
For `COc1cc(Nc2c(C#N)cnc3cc(-c4coc(CN5CCN(c6ccc(C(F)(F)F)cc6)CC5)c4)c(OC)cc23)c(Cl)cc1Cl` [Example 25, 4-[(2,4-dichloro-5-methoxyphenyl)amino]-6-methoxy-7-[5-({4-[4-(trifluoromethyl)phenyl]piperazin-1-yl}methyl)-3-furyl]quinoline-3-carbonitrile], the IC50 [1] was 14.1 nM and 14.4 nM.
With `COc1cc(Nc2c(C#N)cnc3cc(-c4coc(CN5CCSCC5)c4)c(OC)cc23)c(Cl)cc1Cl` [Example 26, 4-[(2,4-dichloro-5-methoxyphenyl)amino]-6-methoxy-7-[5-(thiomorpholin-4-ylmethyl)-3-furyl]quinoline-3-carbonitrile] the IC50 [1] was 9.1 nM and 7.8 nM.
With `COc1cc(Nc2c(C#N)cnc3cc(-c4coc(CN(C)CCN(C)C)c4)c(OC)cc23)c(Cl)cc1Cl` [Example 27, 4-[(2,4-dichloro-5-methoxyphenyl)amino]-7-(5-{[[2-(dimethylamino)ethyl](methyl)amino]methyl}-3-furyl)-6-methoxyquinoline-3-carbonitrile] the IC50 [1] was 3.2 nM and 2.5 nM.
In the case of `COc1cc(Nc2c(C#N)cnc3cc(-c4coc(CN5CCN(C(C)C)CC5)c4)c(OC)cc23)c(Cl)cc1Cl` [Example 28, 4-[(2,4-dichloro-5-methoxyphenyl)amino]-7-{5-[(4-isopropylpiperazin-1-yl)methyl]-3-furyl}-6-methoxyquinoline-3-carbonitrile], the IC50 [1] is reported as 1 nM and 0.7 nM.
In the case of `COc1cc(Nc2c(C#N)cnc3cc(-c4coc(CN5CCCN(C)CC5)c4)c(OC)cc23)c(Cl)cc1Cl` [Example 29, 4-[(2,4-dichloro-5-methoxyphenyl)amino]-6-methoxy-7-{5-[(4-methyl-1,4-diazepan-1-yl)methyl]-3-furyl}quinoline-3-carbonitrile], the IC50 [1] is reported as 1.3 nM and 1 nM.
For `COCCN1CCN(Cc2cc(-c3cc4ncc(C#N)c(Nc5cc(OC)c(Cl)cc5Cl)c4cc3OC)co2)CC1` [Example 30, 4-[(2,4-dichloro-5-methoxyphenyl)amino]-6-methoxy-7-(5-{[4-(2-methoxyethyl)piperazin-1-yl]methyl}-3-furyl)quinoline-3-carbonitrile], the IC50 [1] was 1.9 nM and 1.7 nM.
`COc1cc(Nc2c(C#N)cnc3cc(-c4coc(CN5CCN(CCO)CC5)c4)c(OC)cc23)c(Cl)cc1Cl` [Example 31, 4-[(2,4-dichloro-5-methoxyphenyl)amino]-7-(5-{[4-(2-hydroxyethyl)piperazin-1-yl]methyl}-3-furyl)-6-methoxyquinoline-3-carbonitrile] was tested, and the IC50 [1] was 1.9 nM and 1.8 nM.
`COCCN(C)Cc1cc(-c2cc3ncc(C#N)c(Nc4cc(OC)c(Cl)cc4Cl)c3cc2OC)co1` [Example 32, 4-[(2,4-dichloro-5-methoxyphenyl)amino]-6-methoxy-7-(5-{[(2-methoxyethyl)(methyl)amino]methyl}-3-furyl)quinoline-3-carbonitrile] was tested, and the IC50 [1] was 2.9 nM and 2.6 nM.

Reference: patent publication US7479561B2, “4-(2,4-dichloro-5-methoxyphenyl)amino-6-methoxy-7-{[5-substituted-amino)methyl]-3-furyl}-3-quinolinecarbonitriles as kinase inhibitors” (Wyeth, priority 2004, dated 2009)
